From BindingDB's records for doi:10.1073/pnas.0705637104 (Nih, 2007)

Biological target: T1, Lysosomal acid glucosylceramidase (Homo sapiens, UniProt P04062)
T1 sequence (P04062 whole entry): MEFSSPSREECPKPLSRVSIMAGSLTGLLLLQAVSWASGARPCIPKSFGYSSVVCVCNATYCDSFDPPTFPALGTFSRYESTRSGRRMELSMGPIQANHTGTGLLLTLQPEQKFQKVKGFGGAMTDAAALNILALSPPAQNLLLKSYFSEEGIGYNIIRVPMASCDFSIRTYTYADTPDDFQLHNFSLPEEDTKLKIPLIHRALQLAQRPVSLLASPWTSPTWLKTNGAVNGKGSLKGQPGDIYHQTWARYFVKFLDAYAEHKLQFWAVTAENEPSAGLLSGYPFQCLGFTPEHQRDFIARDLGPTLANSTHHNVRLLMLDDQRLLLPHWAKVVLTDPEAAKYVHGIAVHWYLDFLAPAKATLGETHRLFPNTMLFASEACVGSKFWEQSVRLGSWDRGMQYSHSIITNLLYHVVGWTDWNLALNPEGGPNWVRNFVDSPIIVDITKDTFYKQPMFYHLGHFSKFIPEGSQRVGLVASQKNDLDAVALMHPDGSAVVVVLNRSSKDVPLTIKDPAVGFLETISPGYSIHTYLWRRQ
Test: GC Enzyme Assay
Conditions: pH 5.9; 21 °C

IC50 [µM] | Ki [µM] | Compound
34.4 | 23.4 | CN(c1ccc(C(=O)Nc2nccs2)cc1)S(=O)(=O)c1ccccc1
1.29 | 0.556 | O=C(Nc1nccs1)c1ccc(NS(=O)(=O)c2ccc(Cl)cc2)cc1 [4-[(4-chlorobenzene)sulfonamido]-N-(1,3-thiazol-2-yl)benzamide]
